{"source": "patent US7759338B2", "about": "“Soluble 1,4 benzodiazepine compounds and stable salts thereof” (The Regents of the University of Michigan, priority 2006, dated 2010)", "origin": "cited, not measured here", "key": {"[1]": {"system": "rodents", "details": "two daily doses"}, "[2]": {"target": "mitochondrial F1Fo-ATPase", "details": "F1Fo-ATPase inhibition"}}}
{"smiles": "CC[C@H]1/C=C/C=C/C[C@@H](C)[C@H](O)[C@@](C)(O)C(=O)[C@@H](C)[C@H](O)[C@@H](C)C(=O)[C@@H](C)[C@H](O)[C@@H](C)/C=C/C(=O)O[C@@H]2[C@H](C)[C@H](CC1)O[C@]1(CC[C@H](C)[C@H](C[C@@H](C)O)O1)[C@H]2C", "note": "[oligomycin]", "values": [{"measurement": "LD50", "setting": "[1]", "result": 0.5, "unit": "mg/kg"}, {"measurement": "IC50", "setting": "[2]", "result": 10, "unit": "nM"}]}
